Here are results for one compound from paper PMC10269926, “The LiaFSR-LiaX System Mediates Resistance of Enterococcus faecium to Peptide Antibiotics and to Aureocin A53- and Enterocin L50-Like Bacteriocins” (Microbiology Spectrum, 2023).

Assay [1] relates to E. faecium LMGT 2783 and its spontaneous mutants. Nature of the assay: Effect of NaCl and SDS on bacterial growth (Bioscreen). Format: cell-based, Enterococcus faecium. The settings on record: WT LMGT 2783 and all mutants, BHI, 37°C, 24 h, inoculum 1:100, lowest concentration (wt/vol) with at least 50% growth inhibition, at least triplicate. How it is done:
(§1) The sensitivity of the mutants to AurA53- and EntL50-like bacteriocins, nisin, RAM, GRA, carbenicillin, and chlortetracycline was determined using microtiter plates with serial 2-fold dilutions of the antimicrobials, as described previously ([41]). The lowest concentration of the agent reducing visible bacterial growth by at least 50% was taken as the MIC (MIC50) value. The sensitivity to other antibiotics was determined using agar plates with antibiotic strips as described previously ([12]). The antibiotic concentration at the point where the inhibition zone intersected the strip was taken as the MIC value. The antibiotic susceptibilities of E. faecium LMGT 2783, MUT_130 to MUT_132, MUT_136 to MUT_139, and MUT_140 and MUT_141 were tested in ISO-BHI medium (Oxoid) supplemented with 5 μg/mL Em when appropriate, while those of E. faecium MUT_142 to MUT_149 were tested in CM17 medium supplemented with 5 μg/mL Em. To study the effects of NaCl and sodium dodecyl sulfate (SDS) on bacterial growth, saturated overnight cultures of E. faecium were used for inoculation at a dilution of 1:100 in BHI medium with serial dilutions of these compounds at concentrations of 0.5 to 10% (wt/vol) and 3.0 × 10^−2 to 2.5 × 10^−3% (wt/vol), respectively. […]

The test system of a further assay is E. faecium MUT_132. Nature of the assay: Effect of SDS on bacterial growth (Bioscreen). Format: cell-based, Enterococcus faecium. As to the method: as §1

As to `CCCCCCCCCCCCOS(=O)(=O)[O-].[Na+]` [SDS, sodium dodecyl sulfate], the MIC50 turned out to be 0.01% in assay [1] and 0.005% in the assay with E. faecium MUT_132 (MUT_132, BHI, 37°C, 24 h, Bioscreen C, lowest concentration (wt/vol) with at least 50% growth inhibition, at least triplicate). Also, in the assay with E. faecium MUT_132 (MUT_132 compared with the other strains), the “Fold increase in susceptibility” value was determined as 2 fold.
